Six molecules from patent publication US20110289042A1, “Integrative Framework for Three-Stage Integrative Pathway Search” (BOARD OF TRUSTEES OF MICHAGN STATE UNIVERSITY, priority 2005, published 2011) can be followed below.

Common to all, as to format: cell-based, human
Series [1] concerns stearoyl-CoA desaturase (SCD). Nature of the series: SCD protein expression by western blot in HepG2 cells. How it is done:
The protein expression level of SCD in HepG2 cells cultured in control (HepG2 medium), palmitate, oleate, palmitate+oleate, mediums were measured as a function of TNF-α with western blots.
(In general: A western blot detects proteins with antibodies after separation by electrophoresis.)

The subject of a further series is Hep G2/C3A cells. Here is the method: Cell Culture. 1 million Hep G2/C3A cells (ATCC, Manassas, Va.) were seeded into each well of 6-well culture plate. The cells were kept in 2 mL of medium containing Dulbecco's modified Eagles medium (Invitrogen, Carlsbad, Calif.) supplemented with 10% fetal bovine serum (ATCC) and 2% Penicillin-streptomycin (Invitrogen). Cells were incubated at 37° C. and in 10% CO2 atmosphere. After cells reached confluence, the medium was replaced with 2 mL of treatment of FFA including palmitate (700 μM), oleate (700 μM), linoleate (700 μM) and TNF-α (0, 20, 100 ng/mL′)
Cytotoxicity measurement. […] Cells were washed with phosphate buffered saline (PBS) and kept in 1% Triton-X-100 in PBS for 24 h at 37° C. Cell lysate was then collected, vortexed for 15 seconds, and centrifuged at 7000 rpm for 5 minutes. Cytotoxicity detection kit (Roche Applied Science, Indianapolis, Ind.) was used to measure the LDH release. LDH released was normalized to the total LDH (released+lyzed).

Another series deals with Bcl-2. Nature of the series: Bcl-2 protein expression by western blot in HepG2 cells.
A further series concerns PKC-δ. Put plainly: PKC-δ expression by western blot in HepG2 cells. As to conditions: TNF-α 20 and 100 ng/mL; control, palmitate and oleate cultures. Here is the method: PKC-δ Inhibiting Analysis. The levels of PKC-δ in HepG2, palmitate (700 μM), oleate (700 μM) and palmitate (400 μM)+oleate medium (300 μM) with TNF-α supplementation of 0, 20, 100 ng/mL were detected with western blotting using anti-PKC-δ antibody (Santa Cruz Biotechnology, Inc., Santa Cruz, Calif., US) at 1:2000 dilution.

The subject of a further series is SCD gene expression. Nature of the series: SCD gene expression by cDNA microarray in HepG2 cells. As to conditions: TNF-α in HepG2 cells; log 2(treatment/control). Here is the method:
Gene expression profiling. Cells were cultured in 10 cm tissue culture plates until confluence and then exposed to different treatments. RNA was isolated with Trizol reagent. The gene expression profiling was obtained with cDNA microarray. Analyses were done at the Van Andel Institute, Grand Rapids, Mich. The protocols are available online at (http://microarray.vai.org/protocols/). There were two biological replicates for each condition and each replicate was measured with the Cy3 and Cy5 dyes.

Another series concerns phospho-P65 NF-κB. Put plainly: phospho-P65 NF-κB by western blot in HepG2 cells. Here is the method: Therefore, we tested the possibility of this link in HepG2 cells by adding rottlerin, an inhibitor of PKC-δ, and measuring the protein expression and activity levels of NF-κB with western blots. […] This confirmed the connection between TNF-α and PKC-δ in the reconstructed network (model). To determine whether PKC-δ is involved in mediating the activation of NF-κB by TNF-α, PKC-δ was inhibited by a PKC-δ specific inhibitor rottlerin. The activity of NF-κB was measured with western blots by detecting the levels of phosphorylated NF-κB p65 at serine 536 [Sakurai et al. 2003]. As shown in FIG. 6(A), the activation of NF-κB p65 was attenuated by rottlerin. […] Therefore, PKC-δ was appropriately identified by the model to be an important factor in mediating the TNF-α signaling pathway.
PKC-δ was inhibited with rottlerin (BIOMOL Research Laboratories, Plymouth Meeting, Pa.). […] After 48 hours of exposure, cells were lysated with 1× SDS sample buffer. After ultrasonication for 11-15 seconds, the suspension was centrifuged (10,000 relative centrifugal force (rcf), 5 minutes). The supernatant was run on 7.5% gradient SDS-PAGE, transferred to a nitrocellulose membrane, blocked for 1 hour at room temperature with 5% milk protein solution in Tris buffered saline with Tween 20, and exposed to monoclonal anti-phospho NF-κB (65 kDa subunit) (Cell Signaling Technology Inc., MA) at 1:2000 dilution overnight at 4° C. The blot was washed and put in rabbit anti-mouse IgG secondary antibody (1:2000 dilution in TBS-Tween) for 1 hour. The blot was washed thrice each in TBS-Tween and TBS and developed using Supersignal West Femto Substrate (Pierce Chemicals), and imaged with Bio-Rad imager.
Bcl-2 was inhibited with HA14-1 (BIOMOL Research Laboratories, Plymouth Meeting, Pa.) at 10 μM. The phospho-NF-κB p65 was detected with monoclonal anti-phospho NF-κB (65 kDa subunit) (Cell Signaling Technology Inc., Danvers, Mass., US) at 1:2000 dilution.

Like-named read-outs stand apart in the source and are kept apart here.

Description for Bcl-2: Cells cultured in mediums of HepG2, Palmitate, Oleate, Palmitate (400 μM)+Oleate medium (300 μM) were lysated as described before. The protein samples were run on 10-20% gradient SDS-PAGE. Bcl-2 was probed with Bcl-2 antibody (1:1000) (Cell Signaling Technology, Inc., Danvers, Mass., US) as the primary antibody and goat anti-rabbit IgG as the second antibody at 1:1000 dilution.

On to `CC(=O)N[C@@H](CS)C(=O)O` [N-acetyl cysteine], for which the “SCD protein expression in palmitate culture” value in series [1] (co-supplementation of 10 mM) is “prevented the SCD down-regulation”. The “LDH release in palmitate culture” value in the series on Hep G2/C3A cells (co-supplementation of 10 mM) was “reduced LDH release”.

Regarding `O=C1Nc2ccc3ncsc3c2/C1=C/c1cnc[nH]1` [PKR inhibitor], the Bcl-2 expression result in the series on Bcl-2 (6 μM in culture medium of control) was “decreased the Bcl-2 expression”. In the series with Hep G2/C3A cells (PKR inhibitor 6 μM in control culture medium, 3% without inhibitor), this molecule displayed an LDH release of 25%.

Regarding `CC(C)(Oc1ccc(C2CC2(Cl)Cl)cc1)C(=O)O` (stereo not shown) [ciprofibrate], in the series on Hep G2/C3A cells (6 hours pretreatment followed by 48 hours co-supplementation of 50 μM, palmitate culture), the “LDH release in palmitate culture” value was “significantly decrease LDH release”.

Consider TNF-α, for which the “expression of PKC-δ 41 kDa catalytically active fragment” value with PKC-δ is “increased”. Besides, the Bcl-2 expression result in the series on Bcl-2 (TNF-α 20-100 ng/mL, control, palmitate and oleate cultures) is “down-regulated”. Also, the SCD protein expression entry in series [1] (TNF-α, control, oleate and co-supplementation cultures) is “decreased the expression of SCD”. The “gene expression of SCD” value with SCD gene expression is listed as “upregulated”. Also, the cytotoxicity result with Hep G2/C3A cells is on record as “cytotoxic”; with Hep G2/C3A cells (record 2), “cytoprotective”. The “LDH release in control culture” value in the series on Hep G2/C3A cells (TNF-α in control culture) was “did not affect LDH release”. The “phospho-P65 NF-κB” value in the series with phospho-P65 NF-κB (TNF-α 0, 20 or 100 ng/mL) is reported as “activated phospho-P65 NF-κB”.

`CCOC(=O)C1=C(N)Oc2ccc(Br)cc2C1C(C#N)C(=O)OCC` (stereo not shown) [HA14-1]: in the series with phospho-P65 NF-κB (10 μM, control, palmitate, oleate and palmitate+oleate co-supplementation cultures), the “activation of phospho-P65 NF-κB” value is given as “attenuated the activation of phospho-P65 NF-κB”.

`CC(=O)c1c(O)c(C)c(O)c(Cc2c(O)c3c(c(C(=O)/C=C/c4ccccc4)c2O)OC(C)(C)C=C3)c1O` [rottlerin]: in the series on Hep G2/C3A cells (rottlerin added to palmitate cultures), the “increase of LDH release in the palmitate cultures” value is listed as “up to 25%”. Moreover, the “TNF-α-induced activation of phospho-P65 NF-κB” value in the series on phospho-P65 NF-κB (rottlerin 5 μM, 0, 20 or 100 ng/mL TNF-α) is on record as “this activation was attenuated”.
